Results published in patent US9359338B2, “Cyclopropanecarboxamido-substitute aromatic compounds as anti-tumor agents” (Crown Bioscience Inc. (Taiwan), priority 2012, dated 2016).

Test system: pERK in MDA-MB-231 cells
Test: Inhibitory activity at pERK (In Cell Western, MDA-MB-231 cells)
Format: cell-based
Conditions: Homo sapiens, MDA-MB-231, MDA-MB-231 cells; read-out: MDA-MB-231 pERK IC50
Procedure: Inhibitory Activity of Compounds at pERK
When the cells reach 80% confluency, collect cells by trypsinization and centrifugation at 800 rpm for 3 minutes. Resuspend cells with appropriate volume of medium and count cell numbers. Adjust cell concentration to 70000 cells/mL, and split 100 μL cell suspension per well into 96-well plates. Transfer the plates into cell culture incubator (37° C., 5% CO2) and incubate cells overnight. Discard the medium, wash with PBS once, Prepare compound serial dilutions in culture medium with total 8 compound concentrations at 3-fold serial dilutions (the final top concentration starts from 30 μM). Dispense 75 μL DMEM medium (with 0.1% BSA) and 25 μL of each test compound dilution into corresponding wells with DMSO at 0.3% final concentration. Continue incubating cells in cell culture incubator for additional 2 hrs at 37° C., 5% CO2. Discard culture medium, and wash cells once with PBS. Add 100 μL of 4% formaldehyde solution to each well and fix for 20 min. Discard the formaldehyde, then add 100 μL ice-cold 100% methanol at 4° C. for 20 min. Discard methanol, wash with PBS three times. Add to each well 100 μL of 2% BSA solution, seal for 30 min at room temperature. Discard the BSA solution, add to each well 50 μL of the 1st antibody solution (prepared with 2% BSA, 1:250 dilution), incubate at 4° C. overnight. Discard the 1^St antibody solution, wash with PBS four times. Add to each well […] the 2nd antibody solution (prepared with 1% BSA, 1:1000 dilution), incubate at room temperature for 1 hr. Discard the 2nd antibody solution, wash with PBS four times, add to each well 100 μL PI solution (1.5 μM), incubate at room temperature for 30 min. Use Acumen (TPP) to measure the fluorescence. • [Samples]: Compounds in the examples and sorafenib (positive control) • [Data Analysis]: Use CBIS data analysis software to calculate IC50 values

SMILES | IC50 [nM]
O=C(Nc1cccc(C2CC2)c1)Nc1ccc(Oc2ccnc(NC(=O)C3CC3)c2)c(F)c1 [Exe. 057] | 85
O=C(Nc1cc(C2CCN(C3CC3)CC2)cc(C(F)(F)F)c1)Nc1ccc(Oc2ccnc(NC(=O)C3CC3)c2)c(F)c1 [Exe. 060] | 324
O=C(Nc1cc(NC2CCNCC2)cc(C(F)(F)F)c1)Nc1ccc(Oc2ccnc(NC(=O)C3CC3)c2)c(F)c1 [Exe. 069] | 337
Cc1cc(Oc2cc(NC(=O)C3CC3)ncn2)ccc1NC(=O)Nc1ccc(F)c(C(C)(F)F)c1 [Exe. 071] | 100
Cc1cc(Oc2cc(NC(=O)C3CC3)ncn2)ccc1NC(=O)Nc1cc(Cl)cc(C(F)(F)F)c1 [Exe. 075] | 420
Cc1cc(Oc2cc(NC(=O)C3CC3)ncn2)ccc1NC(=O)Nc1cc(NC2CCN(C)CC2)cc(C(F)(F)F)c1 [Exe. 076] | 83
Cc1cc(Oc2cc(NC(=O)C3CC3)ncn2)ccc1NC(=O)Nc1cc(N2CCCC2)cc(C(F)(F)F)c1 [Exe. 077] | 169
Cc1cc(Oc2cc(NC(=O)C3CC3)ncn2)ccc1NC(=O)Nc1cccc(OC(F)(F)F)c1 [Exe. 079] | 80
Cc1cc(Oc2cc(NC(=O)C3CC3)ncn2)ccc1NC(=O)Nc1ccc(F)c(OC(F)(F)F)c1 [Exe. 081] | 104
Cc1cc(Oc2cc(NC(=O)C3CC3)ncn2)ccc1NC(=O)Nc1cc(F)cc(C(C)(F)F)c1 [Exe. 083] | 609

Stronger by IC50, values ahead:

IC50 [nM] | SMILES
16 | CN1C(=O)C2(CC2)c2cc(NC(=O)Nc3ccc(Oc4ccnc(NC(=O)C5CC5)c4)cc3)ccc21 [Exe. 066]
8.4 | CC(N)c1cc(NC(=O)Nc2ccc(Oc3ccnc(NC(=O)C4CC4)c3)c(F)c2)cc(C(F)(F)F)c1 (stereo not drawn) [Exe. 068]
12 | Cc1cc(Oc2cc(NC(=O)C3CC3)ncn2)ccc1NC(=O)Nc1ccc(C)c(C(F)(F)F)c1 [Exe. 072]
28 | Cc1cc(Oc2cc(NC(=O)C3CC3)ncn2)ccc1NC(=O)Nc1ccc(NC2CCN(C)CC2)c(C(F)(F)F)c1 [Exe. 078]
29 | Cc1cc(Oc2cc(NC(=O)C3CC3)ncn2)ccc1NC(=O)Nc1cc(OC(F)(F)F)ccc1F [Exe. 080]
36 | Cc1cc(Oc2cc(NC(=O)C3CC3)ncn2)ccc1NC(=O)Nc1ccc(Cl)c(OC(F)(F)F)c1 [Exe. 082]

Test system: PLC-PRF-5 cells
Test: Inhibition of proliferation of PLC-PRF-5 cells (ATPlite)
Format: cell-based
Conditions: Homo sapiens, PLC-PRF-5, PLC-PRF-5 cells; read-out: PLC-PRF-5 cell proliferation IC50
Text: Inhibitory Activity of Compounds to the Proliferation of PLC-PRF-5 Cells
• [experimental Method]: Use PerKinElmer's ATPlite™ Luminescence ATP Detection Assay System to evaluate the inhibitory activity of compounds to the proliferation of PLC-PRF-5 cells. • [Instruments]: ENVISION plate reader (PerKinElmer) and centrifuge (Thermo Scientific, Sorvall ST16R) • [material]: PLC-PRF-5 cells (ATCC), 96-well plate (Nunc, #165305), DMEM medium (Gibco, #11965-092), PBS (Invitrogen, #10010023), fetal bovine serum (Gibco, #16000044), DMSO (Sigma, #D2650), ATPlite™ Luminescence ATP Detection Assay System (PerkinElmer, #6016949), purified water (Millipore, type: Milli-Q). • [Protocol]: Grow PLC-PRF-5 cells in DMEM supplemented with 10% FBS. When the cells reach 80% confluency, collect cells by trypsinization and centrifugation at 800 rpm for 3 min. Resuspend cells with appropriate volume of medium and count cell numbers. Adjust cell concentration to 50000 cells/mL, and split 160 μL cell suspension per well into 96-well plates. Transfer the plates into cell culture incubator (37° C., 5% CO2) and incubate cells for 2 hrs. Prepare compound serial dilutions in culture medium with total 8 compound concentrations at 3-fold serial dilutions (the final top concentration starts from 30 μM). Dispense 40 μL of each test compound dilution into corresponding wells with DMSO at 0.3% final concentration. Continue incubating cells in cell culture incubator for additional 96 hrs at 37° C., 5% CO2. Discard culture medium, and wash cells once with PBS. Add 50 μL cell lysis buffer per well and shake plates for 5 min at room temperature to ensure complete lysis of cells. Then add 50 μL of substrate solution and shake plates for 1 min at room temperature. Allow the plates to incubate at room temperature for 5 min, followed by recording the luminescence signals using Envision, and subsequent data analysis. • [Samples]: Compounds in the examples and Sorafenib (positive control) • [Data analysis]: Use CBIS data analysis software to calculate IC50 values

SMILES | IC50 [µM]
O=C(Nc1cccc(C2CC2)c1)Nc1ccc(Oc2ccnc(NC(=O)C3CC3)c2)c(F)c1 [Exe. 057] | 0.25
O=C(Nc1cc(C2CCN(C3CC3)CC2)cc(C(F)(F)F)c1)Nc1ccc(Oc2ccnc(NC(=O)C3CC3)c2)c(F)c1 [Exe. 060] | 1.51
CN1C(=O)C2(CC2)c2cc(NC(=O)Nc3ccc(Oc4ccnc(NC(=O)C5CC5)c4)cc3)ccc21 [Exe. 066] | 2.5
CC(N)c1cc(NC(=O)Nc2ccc(Oc3ccnc(NC(=O)C4CC4)c3)c(F)c2)cc(C(F)(F)F)c1 (stereo not drawn) [Exe. 068] | 0.325
O=C(Nc1cc(NC2CCNCC2)cc(C(F)(F)F)c1)Nc1ccc(Oc2ccnc(NC(=O)C3CC3)c2)c(F)c1 [Exe. 069] | 10.5
Cc1cc(Oc2cc(NC(=O)C3CC3)ncn2)ccc1NC(=O)Nc1ccc(F)c(C(C)(F)F)c1 [Exe. 071] | 20.5
Cc1cc(Oc2cc(NC(=O)C3CC3)ncn2)ccc1NC(=O)Nc1ccc(C)c(C(F)(F)F)c1 [Exe. 072] | 7
Cc1cc(Oc2cc(NC(=O)C3CC3)ncn2)ccc1NC(=O)Nc1cc(Cl)cc(C(F)(F)F)c1 [Exe. 075] | 20
Cc1cc(Oc2cc(NC(=O)C3CC3)ncn2)ccc1NC(=O)Nc1cc(NC2CCN(C)CC2)cc(C(F)(F)F)c1 [Exe. 076] | 5.6
Cc1cc(Oc2cc(NC(=O)C3CC3)ncn2)ccc1NC(=O)Nc1cc(N2CCCC2)cc(C(F)(F)F)c1 [Exe. 077] | 16.5
Cc1cc(Oc2cc(NC(=O)C3CC3)ncn2)ccc1NC(=O)Nc1ccc(NC2CCN(C)CC2)c(C(F)(F)F)c1 [Exe. 078] | 0.879
Cc1cc(Oc2cc(NC(=O)C3CC3)ncn2)ccc1NC(=O)Nc1cccc(OC(F)(F)F)c1 [Exe. 079] | 6
Cc1cc(Oc2cc(NC(=O)C3CC3)ncn2)ccc1NC(=O)Nc1cc(OC(F)(F)F)ccc1F [Exe. 080] | 3.04
Cc1cc(Oc2cc(NC(=O)C3CC3)ncn2)ccc1NC(=O)Nc1ccc(F)c(OC(F)(F)F)c1 [Exe. 081] | 16
Cc1cc(Oc2cc(NC(=O)C3CC3)ncn2)ccc1NC(=O)Nc1ccc(Cl)c(OC(F)(F)F)c1 [Exe. 082] | 22.5
Cc1cc(Oc2cc(NC(=O)C3CC3)ncn2)ccc1NC(=O)Nc1cc(F)cc(C(C)(F)F)c1 [Exe. 083] | 20.4

Target: KDR kinase (790-1356 AA) (Homo sapiens (Human), UniProt P35968)
Sequence (P35968 790-1356): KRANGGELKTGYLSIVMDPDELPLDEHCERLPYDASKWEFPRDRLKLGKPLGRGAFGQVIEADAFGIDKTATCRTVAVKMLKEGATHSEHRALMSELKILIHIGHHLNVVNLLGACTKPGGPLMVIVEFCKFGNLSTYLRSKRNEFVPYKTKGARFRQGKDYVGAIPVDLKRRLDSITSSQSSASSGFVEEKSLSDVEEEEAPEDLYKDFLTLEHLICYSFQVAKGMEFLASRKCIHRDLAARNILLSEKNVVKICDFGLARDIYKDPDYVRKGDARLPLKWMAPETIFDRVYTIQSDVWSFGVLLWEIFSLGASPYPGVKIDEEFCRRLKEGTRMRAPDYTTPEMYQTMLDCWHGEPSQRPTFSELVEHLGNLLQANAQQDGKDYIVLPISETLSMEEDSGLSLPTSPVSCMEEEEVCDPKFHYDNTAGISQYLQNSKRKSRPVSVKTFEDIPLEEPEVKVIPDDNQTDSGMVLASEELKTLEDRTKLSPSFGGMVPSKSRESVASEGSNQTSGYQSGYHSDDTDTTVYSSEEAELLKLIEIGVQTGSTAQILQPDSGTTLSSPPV
Test: Inhibitory activity at KDR kinase (Lance Ultra Ulight-TK assay)
Format: biochemical
Conditions: not given
Procedure: Inhibitory Activity of Compounds at KDR Kinase
• [Experimental method]: Use Lance@Ultra Ulight™-TK assay kit from PerKinElmer to evaluate the inhibitory activity of compounds at KDR kinase. • [Instrument]: PerKinElmer's ENVISION plate reader • [Materials]: Optiplate-384 well plate (PerKinElmer), kinase buffer (50 mM Hepes pH7.5, 0.25 mM EGTA, 2 mM DTT, 0.01% Tween 20, 10 mM Mg^2+, 0.5 mM Mn^2+), KDR kinase (790-1356 AA, Crown Bioscience), KDR kinase substrate (PerKinElmer catalogue # TRF0127-M), Lance@Eu-W1024-anti-phosphotyrosine (PT66) (PerKinElmer, catalogue #AD0068), ATP (Invitrogen), DMSO (Sigma, catalogue #34869), purified water (Millipore, type: Milli-Q). • [Study conditions]: Mix KDR (final concentration: 20 nM) and compound (final DMSO: 0.5%), pre-incubate for 20 min at 30° C.; then add ATP (final concentration: 90 μM) and the substrate (final concentration […]). React for 2 hrs at 30° C. After the reaction, add antibody and reaction for 60 min at 30° C. Read the plate (615 nm, 665 nm), calculate the ratio of the value at 665 nm vs 615 nm and analyze the data. • [Samples]: Compounds in the examples and Sorafenib (positive control) • [Data Analysis]: Use CBIS data analysis software to calculate IC50 values

SMILES | IC50 [nM]
O=C(Nc1cccc(C2CC2)c1)Nc1ccc(Oc2ccnc(NC(=O)C3CC3)c2)c(F)c1 [Exe. 057] | 12
O=C(Nc1cc(C2CCN(C3CC3)CC2)cc(C(F)(F)F)c1)Nc1ccc(Oc2ccnc(NC(=O)C3CC3)c2)c(F)c1 [Exe. 060] | 34.3
O=C(Nc1cc(NC2CCNCC2)cc(C(F)(F)F)c1)Nc1ccc(Oc2ccnc(NC(=O)C3CC3)c2)c(F)c1 [Exe. 069] | 17.1
Cc1cc(Oc2cc(NC(=O)C3CC3)ncn2)ccc1NC(=O)Nc1ccc(F)c(C(C)(F)F)c1 [Exe. 071] | 13.3
Cc1cc(Oc2cc(NC(=O)C3CC3)ncn2)ccc1NC(=O)Nc1cc(Cl)cc(C(F)(F)F)c1 [Exe. 075] | 13.1
Cc1cc(Oc2cc(NC(=O)C3CC3)ncn2)ccc1NC(=O)Nc1cc(NC2CCN(C)CC2)cc(C(F)(F)F)c1 [Exe. 076] | 12.5
Cc1cc(Oc2cc(NC(=O)C3CC3)ncn2)ccc1NC(=O)Nc1cc(N2CCCC2)cc(C(F)(F)F)c1 [Exe. 077] | 14.3
Cc1cc(Oc2cc(NC(=O)C3CC3)ncn2)ccc1NC(=O)Nc1cccc(OC(F)(F)F)c1 [Exe. 079] | 14
Cc1cc(Oc2cc(NC(=O)C3CC3)ncn2)ccc1NC(=O)Nc1ccc(F)c(OC(F)(F)F)c1 [Exe. 081] | 13.3
Cc1cc(Oc2cc(NC(=O)C3CC3)ncn2)ccc1NC(=O)Nc1cc(F)cc(C(C)(F)F)c1 [Exe. 083] | 14.3

Further lines, results first:

IC50 [nM] | SMILES
8 | CN1C(=O)C2(CC2)c2cc(NC(=O)Nc3ccc(Oc4ccnc(NC(=O)C5CC5)c4)cc3)ccc21 [Exe. 066]
15.7 | CC(N)c1cc(NC(=O)Nc2ccc(Oc3ccnc(NC(=O)C4CC4)c3)c(F)c2)cc(C(F)(F)F)c1 (stereo not drawn) [Exe. 068]
8.9 | Cc1cc(Oc2cc(NC(=O)C3CC3)ncn2)ccc1NC(=O)Nc1ccc(C)c(C(F)(F)F)c1 [Exe. 072]
13.3 | Cc1cc(Oc2cc(NC(=O)C3CC3)ncn2)ccc1NC(=O)Nc1ccc(NC2CCN(C)CC2)c(C(F)(F)F)c1 [Exe. 078]
8.1 | Cc1cc(Oc2cc(NC(=O)C3CC3)ncn2)ccc1NC(=O)Nc1cc(OC(F)(F)F)ccc1F [Exe. 080]
6.8 | Cc1cc(Oc2cc(NC(=O)C3CC3)ncn2)ccc1NC(=O)Nc1ccc(Cl)c(OC(F)(F)F)c1 [Exe. 082]
